Experimental data published in US12251382B2, “Substituted amino-pyrimidine compound for use in a method for treatment and prevention of multiple sclerosis” (Merck Patent GmbH, priority 2018, dated 2025).
“Also recorded” adds a separate entry of the source. Like-named read-outs stand apart in the source and are kept apart here.

Conditions: for Overall safety and tolerability: single doses 25-500 mg, multiple doses 25-200 mg for 14 days
[1] = Part 1, pooled active, listed as evobrutinib

Protocol: A randomized, double-blind, placebo-controlled trial conducted in healthy volunteers. […] Written informed consent was obtained from all participants.
Following completion of each dose cohort in both parts of the study, a safety monitoring committee (SMC) decided whether protocol-defined dose escalation to the next level was appropriate to a maximum of 500 mg in Part 1, or to the highest safe and tolerated dose or highest dose from Part 1 in Part 2, based on all safety data and other available data (including PK and PD data). […] Other safety data (e.g., hematology parameters) were also taken into consideration for dose escalation decisions as a matter of course.
TEAEs and SAEs were recorded from time of informed consent until study completion. […] Assessment of severity considered the Toxicity Grading Scale for Healthy Adult and Adolescent Volunteers Enrolled in Preventative Vaccine Clinical Trials. Data were summarized using descriptive statistics.

C=CC(=O)N1CCC(CNc2ncnc(N)c2-c2ccc(Oc3ccccc3)cc2)CC1 [Evobrutinib, 1-(4-(((6-amino-5-(4-phenoxyphenyl)pyrimidin-4-yl)amino)methyl)piperidin-1-yl)prop-2-en-1-one]
Severity of TEAEs (Part 1): mild (Grade 1) except in one subject in the 200 mg treatment group
Subjects with contact dermatitis at locations of ECG pads (Part 1, all evobrutinib doses): 5.6%
Subjects with headache (Part 1, all evobrutinib doses): 5.6%
Dose-limiting TEAE (Part 1, one subject in the 200 mg treatment group): Grade 4 increased lipase in combination with Grade 3 increased amylase
Abdominal pain, subjects (Part 1, pooled active): 0 (0.0) n (%)
Amylase increased, number of TEAEs (Part 1, pooled active): [1]
Amylase increased, subjects (Part 1, pooled active): 1 (2.8) n (%)
Application site pruritus (due to ECG stickers), subjects (Part 1, pooled active): 0 (0.0) n (%)
Back pain, number of TEAEs (Part 1, pooled active): [1]
Back pain, subjects (Part 1, pooled active): 1 (2.8) n (%)
Contact dermatitis, number of TEAEs (Part 1, pooled active): [2]
Contact dermatitis, subjects (Part 1, pooled active): 2 (5.6) n (%)
Dizziness, number of TEAEs (Part 1, pooled active): [1]
Dizziness, subjects (Part 1, pooled active): 1 (2.8) n (%)
Dry eye, number of TEAEs (Part 1, pooled active): [1]
Dry eye, subjects (Part 1, pooled active): 1 (2.8) n (%)
Dry mouth, subjects (Part 1, pooled active): 0 (0.0) n (%)
Dyspepsia, number of TEAEs (Part 1, pooled active): [1]
Dyspepsia, subjects (Part 1, pooled active): 1 (2.8) n (%)
Excoriation, number of TEAEs (Part 1, pooled active): [1]
Excoriation, subjects (Part 1, pooled active): 1 (2.8) n (%)
Headache, number of TEAEs (Part 1, pooled active): [3]
Headache, subjects (Part 1, pooled active): 2 (5.6) n (%)
Lipase increased, number of TEAEs (Part 1, pooled active): [1]
Lipase increased, subjects (Part 1, pooled active): 1 (2.8) n (%)
Multiple injuries, number of TEAEs (Part 1, pooled active): [1]
Multiple injuries, subjects (Part 1, pooled active): 1 (2.8) n (%)
Nasal congestion, number of TEAEs (Part 1, pooled active): [1]
Nasal congestion, subjects (Part 1, pooled active): 1 (2.8) n (%)
Noncardiac chest pain, subjects (Part 1, pooled active): 0 (0.0) n (%)
Odynophagia, number of TEAEs (Part 1, pooled active): [1]
Odynophagia, subjects (Part 1, pooled active): 1 (2.8) n (%)
Overall total TEAEs, subjects (Part 1, pooled active): 9 (25.5) n (%)
Overall total, number of TEAEs (Part 1, pooled active): [15]
Upper respiratory tract infection, subjects (Part 1, pooled active): 0 (0.0) n (%)
Contact dermatitis, number of TEAEs [1]: two
Headache, number of TEAEs [1]: three
Overall total, number of TEAEs [1]: 15
Abdominal pain, subjects (Part 1, single dose 25 mg): 0 (0.0) n (%)
Amylase increased, subjects (Part 1, single dose 25 mg): 0 (0.0) n (%)
Application site pruritus (due to ECG stickers), subjects (Part 1, single dose 25 mg): 0 (0.0) n (%)
Back pain, subjects (Part 1, single dose 25 mg): 0 (0.0) n (%)
Contact dermatitis, subjects (Part 1, single dose 25 mg): 0 (0.0) n (%)
Dizziness, subjects (Part 1, single dose 25 mg): 0 (0.0) n (%)
Dry eye, subjects (Part 1, single dose 25 mg): 0 (0.0) n (%)
Dry mouth, subjects (Part 1, single dose 25 mg): 0 (0.0) n (%)
Dyspepsia, subjects (Part 1, single dose 25 mg): 0 (0.0) n (%)
Excoriation, subjects (Part 1, single dose 25 mg): 0 (0.0) n (%)
Headache, subjects (Part 1, single dose 25 mg): 0 (0.0) n (%)
Lipase increased, subjects (Part 1, single dose 25 mg): 0 (0.0) n (%)
Multiple injuries, subjects (Part 1, single dose 25 mg): 0 (0.0) n (%)
Nasal congestion, subjects (Part 1, single dose 25 mg): 0 (0.0) n (%)
Noncardiac chest pain, subjects (Part 1, single dose 25 mg): 0 (0.0) n (%)
Odynophagia, subjects (Part 1, single dose 25 mg): 0 (0.0) n (%)
Overall total TEAEs, subjects (Part 1, single dose 25 mg): 0 (0.0) n (%)
Upper respiratory tract infection, subjects (Part 1, single dose 25 mg): 0 (0.0) n (%)
Abdominal pain, subjects (Part 1, single dose 50 mg): 0 (0.0) n (%)
Amylase increased, subjects (Part 1, single dose 50 mg): 0 (0.0) n (%)
Application site pruritus (due to ECG stickers), subjects (Part 1, single dose 50 mg): 0 (0.0) n (%)
Back pain, number of TEAEs (Part 1, single dose 50 mg): [1]
Back pain, subjects (Part 1, single dose 50 mg): 1 (16.7) n (%)
Contact dermatitis, number of TEAEs (Part 1, single dose 50 mg): [2]
Contact dermatitis, subjects (Part 1, single dose 50 mg): 2 (33.3) n (%)
Dizziness, subjects (Part 1, single dose 50 mg): 0 (0.0) n (%)
Dry eye, subjects (Part 1, single dose 50 mg): 0 (0.0) n (%)
Dry mouth, subjects (Part 1, single dose 50 mg): 0 (0.0) n (%)
Dyspepsia, number of TEAEs (Part 1, single dose 50 mg): [1]
Dyspepsia, subjects (Part 1, single dose 50 mg): 1 (16.7) n (%)
Excoriation, subjects (Part 1, single dose 50 mg): 0 (0.0) n (%)
Headache, number of TEAEs (Part 1, single dose 50 mg): [2]
Headache, subjects (Part 1, single dose 50 mg): 1 (16.7) n (%)
Lipase increased, subjects (Part 1, single dose 50 mg): 0 (0.0) n (%)
Multiple injuries, subjects (Part 1, single dose 50 mg): 0 (0.0) n (%)
Nasal congestion, subjects (Part 1, single dose 50 mg): 0 (0.0) n (%)
Noncardiac chest pain, subjects (Part 1, single dose 50 mg): 0 (0.0) n (%)
Odynophagia, subjects (Part 1, single dose 50 mg): 0 (0.0) n (%)
Overall total TEAEs, subjects (Part 1, single dose 50 mg): 3 (50.0) n (%)
Overall total, number of TEAEs (Part 1, single dose 50 mg): [6]
Upper respiratory tract infection, subjects (Part 1, single dose 50 mg): 0 (0.0) n (%)
Abdominal pain, subjects (Part 1, single dose 100 mg): 0 (0.0) n (%)
Amylase increased, subjects (Part 1, single dose 100 mg): 0 (0.0) n (%)
Application site pruritus (due to ECG stickers), subjects (Part 1, single dose 100 mg): 0 (0.0) n (%)
Back pain, subjects (Part 1, single dose 100 mg): 0 (0.0) n (%)
Contact dermatitis, subjects (Part 1, single dose 100 mg): 0 (0.0) n (%)
Dizziness, subjects (Part 1, single dose 100 mg): 0 (0.0) n (%)
Dry eye, subjects (Part 1, single dose 100 mg): 0 (0.0) n (%)
Dry mouth, subjects (Part 1, single dose 100 mg): 0 (0.0) n (%)
Dyspepsia, subjects (Part 1, single dose 100 mg): 0 (0.0) n (%)
Excoriation, subjects (Part 1, single dose 100 mg): 0 (0.0) n (%)
Headache, subjects (Part 1, single dose 100 mg): 0 (0.0) n (%)
Lipase increased, subjects (Part 1, single dose 100 mg): 0 (0.0) n (%)
Multiple injuries, subjects (Part 1, single dose 100 mg): 0 (0.0) n (%)
Nasal congestion, number of TEAEs (Part 1, single dose 100 mg): [1]
Nasal congestion, subjects (Part 1, single dose 100 mg): 1 (16.7) n (%)
Noncardiac chest pain, subjects (Part 1, single dose 100 mg): 0 (0.0) n (%)
Odynophagia, subjects (Part 1, single dose 100 mg): 0 (0.0) n (%)
Overall total TEAEs, subjects (Part 1, single dose 100 mg): 1 (16.7) n (%)
Overall total, number of TEAEs (Part 1, single dose 100 mg): [1]
Upper respiratory tract infection, subjects (Part 1, single dose 100 mg): 0 (0.0) n (%)
Abdominal pain, subjects (Part 1, single dose 200 mg): 0 (0.0) n (%)
Amylase increased, number of TEAEs (Part 1, single dose 200 mg): [1]
Amylase increased, subjects (Part 1, single dose 200 mg): 1 (16.7) n (%)
Application site pruritus (due to ECG stickers), subjects (Part 1, single dose 200 mg): 0 (0.0) n (%)
Back pain, subjects (Part 1, single dose 200 mg): 0 (0.0) n (%)
Contact dermatitis, subjects (Part 1, single dose 200 mg): 0 (0.0) n (%)
Dizziness, number of TEAEs (Part 1, single dose 200 mg): [1]
Dizziness, subjects (Part 1, single dose 200 mg): 1 (16.7) n (%)
Dry eye, subjects (Part 1, single dose 200 mg): 0 (0.0) n (%)
Dry mouth, subjects (Part 1, single dose 200 mg): 0 (0.0) n (%)
Dyspepsia, subjects (Part 1, single dose 200 mg): 0 (0.0) n (%)
Excoriation, number of TEAEs (Part 1, single dose 200 mg): [1]
Excoriation, subjects (Part 1, single dose 200 mg): 1 (16.7) n (%)
Headache, subjects (Part 1, single dose 200 mg): 0 (0.0) n (%)
Lipase increased, number of TEAEs (Part 1, single dose 200 mg): [1]
Lipase increased, subjects (Part 1, single dose 200 mg): 1 (16.7) n (%)
Multiple injuries, subjects (Part 1, single dose 200 mg): 0 (0.0) n (%)
Nasal congestion, subjects (Part 1, single dose 200 mg): 0 (0.0) n (%)
Noncardiac chest pain, subjects (Part 1, single dose 200 mg): 0 (0.0) n (%)
Odynophagia, subjects (Part 1, single dose 200 mg): 0 (0.0) n (%)
Overall total TEAEs, subjects (Part 1, single dose 200 mg): 2 (33.3) n (%)
Overall total, number of TEAEs (Part 1, single dose 200 mg): [4]
Upper respiratory tract infection, subjects (Part 1, single dose 200 mg): 0 (0.0) n (%)
Abdominal pain, subjects (Part 1, single dose 350 mg): 0 (0.0) n (%)
Amylase increased, subjects (Part 1, single dose 350 mg): 0 (0.0) n (%)
Application site pruritus (due to ECG stickers), subjects (Part 1, single dose 350 mg): 0 (0.0) n (%)
Back pain, subjects (Part 1, single dose 350 mg): 0 (0.0) n (%)
Contact dermatitis, subjects (Part 1, single dose 350 mg): 0 (0.0) n (%)
Dizziness, subjects (Part 1, single dose 350 mg): 0 (0.0) n (%)
Dry eye, subjects (Part 1, single dose 350 mg): 0 (0.0) n (%)
Dry mouth, subjects (Part 1, single dose 350 mg): 0 (0.0) n (%)
Dyspepsia, subjects (Part 1, single dose 350 mg): 0 (0.0) n (%)
Excoriation, subjects (Part 1, single dose 350 mg): 0 (0.0) n (%)
Headache, subjects (Part 1, single dose 350 mg): 0 (0.0) n (%)
Lipase increased, subjects (Part 1, single dose 350 mg): 0 (0.0) n (%)
Multiple injuries, number of TEAEs (Part 1, single dose 350 mg): [1]
Multiple injuries, subjects (Part 1, single dose 350 mg): 1 (16.7) n (%)
Nasal congestion, subjects (Part 1, single dose 350 mg): 0 (0.0) n (%)
Noncardiac chest pain, subjects (Part 1, single dose 350 mg): 0 (0.0) n (%)
Odynophagia, subjects (Part 1, single dose 350 mg): 0 (0.0) n (%)
Overall total TEAEs, subjects (Part 1, single dose 350 mg): 1 (16.7) n (%)
Overall total, number of TEAEs (Part 1, single dose 350 mg): [1]
Upper respiratory tract infection, subjects (Part 1, single dose 350 mg): 0 (0.0) n (%)
Abdominal pain, subjects (Part 1, single dose 500 mg): 0 (0.0) n (%)
Amylase increased, subjects (Part 1, single dose 500 mg): 0 (0.0) n (%)
Application site pruritus (due to ECG stickers), subjects (Part 1, single dose 500 mg): 0 (0.0) n (%)
Back pain, subjects (Part 1, single dose 500 mg): 0 (0.0) n (%)
Contact dermatitis, subjects (Part 1, single dose 500 mg): 0 (0.0) n (%)
Dizziness, subjects (Part 1, single dose 500 mg): 0 (0.0) n (%)
Dry eye, number of TEAEs (Part 1, single dose 500 mg): [1]
Dry eye, subjects (Part 1, single dose 500 mg): 1 (16.7) n (%)
Dry mouth, subjects (Part 1, single dose 500 mg): 0 (0.0) n (%)
Dyspepsia, subjects (Part 1, single dose 500 mg): 0 (0.0) n (%)
Excoriation, subjects (Part 1, single dose 500 mg): 0 (0.0) n (%)
Headache, number of TEAEs (Part 1, single dose 500 mg): [2]
Headache, subjects (Part 1, single dose 500 mg): 1 (16.7) n (%)
Lipase increased, subjects (Part 1, single dose 500 mg): 0 (0.0) n (%)
Multiple injuries, subjects (Part 1, single dose 500 mg): 0 (0.0) n (%)
Nasal congestion, subjects (Part 1, single dose 500 mg): 0 (0.0) n (%)
Noncardiac chest pain, subjects (Part 1, single dose 500 mg): 0 (0.0) n (%)
Odynophagia, number of TEAEs (Part 1, single dose 500 mg): [1]
Odynophagia, subjects (Part 1, single dose 500 mg): 1 (16.7) n (%)
Overall total TEAEs, subjects (Part 1, single dose 500 mg): 2 (33.3) n (%)
Overall total, number of TEAEs (Part 1, single dose 500 mg): [3]
Upper respiratory tract infection, subjects (Part 1, single dose 500 mg): 0 (0.0) n (%)
Subjects with TEAEs (Part 1, single dosing, all evobrutinib doses): 25%
TEAEs leading to discontinuation; trends in vital signs, ECGs, laboratory values, IgG subclasses (either part of the study): no TEAEs leading to discontinuation and no clinically significant trends in vital signs, ECGs, laboratory values or immunoglobulin G (IgG) subclasses
SAE of multi-trauma due to an automobile accident, relation to study drug (one subject, 350 mg single ascending dose cohort, 7 days after administration): unrelated to the study drug
Deaths or serious adverse events (SAEs) related to treatment (single and multiple dosing (Parts 1 and 2)): no deaths or serious adverse events (SAEs) related to treatment
Overall safety and tolerability: well tolerated
Overall safety and tolerability (listed as evobrutinib): safe and well tolerated and no non-tolerated dose could be defined; also recorded: safe and well tolerated
